Data as given in patent publication US20200038412A1, “METHODS OF TREATING ALZHEIMER'S DISEASE USING AMINOSTEROL COMPOSITIONS” (Enterin, Inc., priority 2018, published 2020).
Entries after “also recorded” stand apart in the source; their conditions may differ.

Experiments:
[1] = Preclinical oral dosing in rats; type: in vivo
αS = αS (Homo sapiens, UniProt P37840); conditions: in vitro; cited from earlier work
[2] = tested on: patients with PD and constipation; assay: Phase 2 trial, all dosed patients (Stage 1 and 2): adverse events; type: in vivo, human
Protocol: Fifty patients were enrolled and 44 were dosed. In Stage 1, 10 patients were dosed, 1 (10%) withdrew prior to completion and 9 (90%) completed dosing. In stage 2, 6 (15%) patients had ≥3 CSBM/week at the end of the run-in period and were excluded, 34 patients were dosed and bowel response was assessable in 31 (91%). Two patients (5.8%) were terminated prior to completion because of recurrent dizziness, and 3 others withdrew during dosing (8.8%): 2 because of diarrhea and 1 because of holiday. Fifteen patients were randomized.
Most AEs were confined to the GI tract (88% in Stage 1 and 63% in Stage 2). The most common AE was nausea which occurred in 4/10 (40%) patients in Stage 1 and in 18/34 (52.9%) in Stage 2 (Table 2). Diarrhea occurred in 4/10 (40%) patients in Stage 1 and 15/34 (44%) in Stage 2. One patient withdrew because of recurrent diarrhea. Other GI related AEs included abdominal pain 11/44 […], flatulence 3/44 (6.8%), vomiting 3/44 (6.8%), worsening of acid reflux 2/44 (4.5%), and worsening of hemorrhoids 1/44 (2.2%). […] The only other noteworthy AE was dizziness 8/44 (18%). Dizziness was graded as moderate in one patient who was receiving an alpha-adrenergic blocking agent (Terazosin). This patient was withdrawn from the study and recovered spontaneously.

[3] = tested on: patients with PD and constipation; assay: Phase 2 trial Stage 1: bowel (prokinetic) response to single escalating oral doses; type: in vivo, human; conditions: Stage 1, single oral dose
Protocol: Following successful screening, all subjects underwent a 14-day run-in period where the degree of constipation was assessed through a validated daily log (Zinsmeister et al. 2013) establishing baseline CSBMs/week. Subjects with an average of <3 CSBMs/week proceeded to dosing.
(§1) Tolerability limits included diarrhea or vomiting.

[4] = tested on: patients with PD and constipation; assay: Circadian rhythm of wrist skin temperature; type: in vivo, human; conditions: for circadian rhythm of skin temperature / markers of healthy circadian function: oral, 12 evaluable patients
Protocol: Assessments were made at baseline and at the end of the fixed dose and washout periods. Circadian system status was evaluated by continuously monitoring wrist skin temperature (Thermochron iButton DS1921H; Maxim, Dallas) following published procedures (Sarabia et al. 2008).
Circadian rhythm of skin temperature was evaluable in 12 patients (i.e., those who had recordings that extended from baseline through washout). Circadian system functionality was evaluated by continuously monitoring wrist skin temperature using a temperature sensor (Thermochron iButton DS1921H; Maxim, Dallas, Tex.) (Sarabia et al. 2008). A nonparametric analysis was performed for each participant to characterize DST as previously described (Sarabia et al. 2008; Ortiz-Tudela et al. 2010).
Briefly, this analysis includes the following parameters: (i) the inter-daily stability (the constancy of 24-hour rhythmic pattern over days, IS); (ii) intra-daily variability (rhythm fragmentation, IV); (iii) average of 10-minute intervals for the 10 hours with the minimum temperature (L10); (iv) average of 10-minute intervals for the 5 hours with the maximum temperature (M5) and the relative amplitude (RA), which was determined by the difference between M5 and L10, divided by the sum of both. Finally, the Circadian Function Index (CFI) was calculated by integrating IS, IV, and RA. Consequently, CFI is a global measure that oscillates between 0 for the absence of circadian rhythmicity and 1 for a robust circadian rhythm (Ortiz-Tudela et al. 2010).

[5] = tested on: patients with PD and constipation; assay: Phase 2 trial Stage 1: adverse events; type: in vivo, human
Text: as §1

[6] = Stage 1, 10 dosed, unrelated to ENT-01

## CC(C)[C@@H](CC[C@@H](C)[C@H]1CC[C@H]2[C@@H]3[C@H](O)C[C@H]4C[C@@H](NCCCNCCCCN)CC[C@]4(C)[C@H]3CC[C@]12C)OS(=O)(=O)O (single isomer, unassigned) [squalamine (ENT-01), squalamine]
[1]; rat, portal blood concentrations following oral dosing of radioactive ENT-01
  absorption from the intestine: low
[1]; rats
  bioavailability: limited bioavailability
  tolerability: well tolerated
αS
  displacement of αS from membranes: can displace αS from membranes
[2]; 1/44 dosed patients
  patients with worsening of hemorrhoids: 2.2%
[2]; 2/44 dosed patients
  patients with worsening of acid reflux: 4.5%
[2]; 3/44 dosed patients
  patients with flatulence: 6.8%
  patients with vomiting: 6.8%
[2]; 8/44 dosed patients
  patients with dizziness: 18%
[3]; 25 mg
  cumulative response rate (CSBM within 24 hours of dosing): 25%
[3]; 200 mg (maximum)
  cumulative response rate (CSBM within 24 hours of dosing): 80%
[4]; fixed dose vs baseline, p=0.001
  relative amplitude (RA): increasing
[4]; fixed dose vs baseline, p=0.016
  circadian function index (CFI): increasing
[4]; fixed dose vs baseline, p=0.026
  rhythm stability (inter-daily stability, IS): increasing
[4]; fixed dose vs baseline, p=0.031
  rhythm fragmentation (intra-daily variability, IV): reducing
[4]; fixed dose vs baseline
  circadian rhythm of skin temperature / markers of healthy circadian function: significant positive impact on the circadian rhythm of skin temperature; also recorded: improved all markers of healthy circadian function
[4]; fixed dose vs baseline, listed as aminosterol
  circadian rhythm of skin temperature / markers of healthy circadian function: improved all markers of healthy circadian function
[4]; wash-out vs baseline (IS, CFI), 12 patients
  circadian parameters during wash-out period: improvement persisted for several of these circadian parameters
[5]; Stage 1
  AEs confined to the GI tract: 88%
[5]; Stage 1, 25 mg
  Diarrhea (common adverse events by dose): 1
  Nausea (common adverse events by dose): 0
  Vomiting (common adverse events by dose): 0
[5]; Stage 1, 50 mg
  Diarrhea (common adverse events by dose): 1
  Nausea (common adverse events by dose): 0
  Vomiting (common adverse events by dose): 0
[5]; Stage 1, 75 mg
  Diarrhea (common adverse events by dose): 1
  Nausea (common adverse events by dose): 0
  Vomiting (common adverse events by dose): 0
[5]; Stage 1, 100 mg
  Diarrhea (common adverse events by dose): 0
  Nausea (common adverse events by dose): 1
  Vomiting (common adverse events by dose): 1
[5]; Stage 1, 125 mg
  Diarrhea (common adverse events by dose): 1
  Nausea (common adverse events by dose): 2
  Vomiting (common adverse events by dose): 1
[5]; Stage 1, 150 mg
  Diarrhea (common adverse events by dose): 1
  Nausea (common adverse events by dose): 0
  Vomiting (common adverse events by dose): 0
[5]; Stage 1, 175 mg
  Diarrhea (common adverse events by dose): 1
  Nausea (common adverse events by dose): 1
  Vomiting (common adverse events by dose): 0
[5]; Stage 1, 200 mg
  Diarrhea (common adverse events by dose): 0
  Nausea (common adverse events by dose): 2
  Vomiting (common adverse events by dose): 0
[5]; Stage 1, 4/10 patients
  patients with diarrhea: 40%
  patients with nausea: 40%
[5]; Stage 1, 10 dosed
  Abdominal pain, Mild: 2 (20) n, %
  Abdominal pain, Moderate: 3 (30) n, %
  Blood in urine, Moderate: 0 n, %
  Diarrhea, Mild: 1 (10) n, %
  Diarrhea, Moderate: 3 (30) n, %
  Diarrhea, Severe: 0 n, %
  Difficulty falling asleep, Mild: 0 n, %
  Difficulty falling asleep, Moderate: 0 n, %
  Dizziness, Mild: 0 n, %
  Dizziness, Moderate: 0 n, %
  Eye infection, Mild: 0 n, %
  Eye infection, Moderate: 0 n, %
  Flatulence, Mild: 2 (20) n, %
  Flatulence, Moderate: 0 n, %
  Headache, Mild: 1 (10) n, %
  Headache, Moderate: 0 n, %
  Increased urinary frequency, Mild: 0 n, %
  Increased urinary frequency, Moderate: 0 n, %
  Loss of appetite, Moderate: 0 n, %
  Lower GI bleed, Severe: 0 n, %
  Nausea, Mild: 4 (40) n, %
  Nausea, Moderate: 0 n, %
  Skin lesions-rash, Mild: 0 n, %
  Skin lesions-rash, Moderate: 0 n, %
  Urinary retention, Mild: 0 n, %
  Urinary retention, Moderate: 0 n, %
  Urinary tract infection, Mild: 0 n, %
  Urinary tract infection, Moderate: 0 n, %
  Vomiting, Mild: 1 (10) n, %
  Vomiting, Moderate: 0 n, %
  Worsening acid reflux, Mild: 0 n, %
  Worsening acid reflux, Moderate: 0 n, %
  Worsening hemorrhoid, Mild: 0 n, %
  Worsening hemorrhoid, Moderate: 0 n, %
[5]; [6]
  Blood in urine, Mild: 1 (10) n, %
  Loss of appetite, Mild: 1 (10) n, %
